Test results reported in patent publication US9351492B2, “Anti-biofilm compositions and methods for using” (priority 2010, dated 2016).

Legend:
Staphylococcus aureus [1] = assay: MIC, CLSI broth microdilution (growth inhibition); format: cell-based; settings: doses 25-2000 μM
Description: (§1) For all assays, overnight cultures grown in the appropriate medium were used to inoculate fresh medium at an initial cell density of 5×10^5 colony-forming units (CFU) per ml. Cell density was confirmed by colony count of aliquots taken immediately following inoculation of the test strain.
Briefly, test strains were inoculated into 0.1 ml CAMHB containing 220D-F2 at concentrations ranging from 0.138-4 mg/ml (0.138-4% excipient in solution). For the MIC, optical density (OD600) was assessed immediately after inoculation and again after 18 hrs using a Biotek Synergy II microplate reader. Corrections for extract color, which can alter the OD output, were done as previously described (Quave et al., 2008, supra). […] The MBC was determined by taking colony counts of aliquots taken from each well after 24 hrs and it was defined as the lowest concentration at which the initial density of viable cells was reduced by ≧90% (for MBC90) or ≧50% (for MBC50) by comparison to the untreated control. […] For these experiments, 10 ml cultures were grown at 37° C. in 25 ml Erlenmeyer flasks in BM with constant shaking (200 rpm).
(§2) Ten commercially available phytochemical constituents reported in the literature to have been isolated from R. ulmifolius (Table 4) were purchased and examined for their prophylactic efficacy in the prevention of biofilm formation using a static microtiter plate biofilm assay. Ferulic acid, kaempferol, ursolic acid, quercetin dehydrate, caffeic acid, ellagic acid, and oleanolic acid were purchased from MP BioMedicals (Solon, Ohio, USA); quercetin-3-O-glucuronide and tiliroside from Chromadex (Irvine, Calif., USA); and gallic acid from Acros Organics (NJ, USA). Compounds were tested for growth and biofilm inhibitory activity at doses ranging from 25-2000 μM. To determine the minimum inhibitory concentration (MIC) for each fraction, strains of S. aureus were grown in 37° C. in cation adjusted Muller-Hinton broth (CAMHB). MIC and MBC were determined following Clinical and Laboratory Standards Institute […] broth microdilution guidelines. Briefly, strains were inoculated into 0.1 ml CAMBH containing varying concentrations of the compound. For MIC, optical density (OD600) was assessed immediately after inoculation and again after 18 hours using Biotek Synergy II microplate reader. The MIC was defined as the lowest concentration that inhibited growth to a level greater than or equal to 90% (for MIC90) or greater than or equal to 50% (for MIC50) by comparison to untreated cultures.

Staphylococcus aureus [2] = format: cell-based; settings: for Biofilm Formation MBIC50 / Biofilm Formation MBIC90: doses 25-2000 μM
Description: as §1
Biofilm formation was assessed using a microtiter plate assay as previously described (Beenken et al., 2003, Infection and Immunity 71:4206-11) except that 2-fold serial dilutions (0.0125-0.4 mg/ml, 0.0125-0.4% excipient in solution) of 220D-F2 were included in the BM. Controls for each experiment were the wild-type strain and its isogenic sarA mutant assayed in the absence of 220D-F2. The minimum biofilm inhibiting concentration (MBIC) was defined as the lowest concentration at which 220D-F2 inhibited biofilm formation to a level ≧90% (for MBIC90) or ≧50% (for MBIC50) than that observed with the parent strain in the absence of 220D-F2. […]
as §2

Staphylococcus aureus [3] = settings: Durig et al. 2010; cited from earlier work
UAMS-1 = assay: in vitro catheter assay, established biofilm; format: cell-based, Staphylococcus aureus; settings: catheters colonized without extract; 220D-F2 0.2 mg/ml, daptomycin 10 μg/ml (10× breakpoint MIC)
Description: UAMS-1 was grown on 1 cm catheter segments as previously described (Weiss et al., 2009b, Antimicrobial Agents and Chemotherapy 53:2475-2482). After 24 hrs, the BM medium was replaced with BM medium containing 220D-F2 (0.2 mg/ml) and/or daptomycin. […] The medium was replaced in its entirety at 24 hr intervals for 7 days. The therapeutic response of UAMS-1 to daptomycin in the presence of 220D-F2 was assessed by comparison to UAMS-929 grown in the absence of 220D-F2 but exposed to daptomycin as previously described (Weiss et al., 2009a, 2009b, supra). […] After each 24 h interval, catheters were removed from each treatment group and rinsed with PBS before removing bacteria for plate counts as previously described (Weiss et al., 2009a, 2009b, supra).
This assay was also used to assess the prophylactic activity of 220D-F2. In this case, the test compounds were added to the BM at the time of inoculation rather than after a 24 hr colonization period. After 24 hr incubation in the presence of 220D-F2, the catheters were processed for plate counts as described above.
Catheters were colonized with UAMS-1 in the absence of any extract. […] The antibiotics tested were daptomycin, clindamycin, vancomycin, and oxacillin.

Molecule	Growth MBIC50 (Staphylococcus aureus [1])	Growth MBIC90 (Staphylococcus aureus [1])	Biofilm Formation MBIC50 (Staphylococcus aureus [2])	Biofilm Formation MBIC90 (Staphylococcus aureus [2])	anti-biofilm activity at doses well below any growth inhibitory effects (Staphylococcus aureus [2]; among 10 phytochemicals)	biofilm inhibition of S. aureus, previous studies (Staphylococcus aureus [3])	average colony counts at day 7 (UAMS-1)
O=C(O)c1cc(O)c(O)c(O)c1 [Gallic Acid]	>2000 µM	>2000 µM	713 ± 32 µM	2010 ± 10 µM	–	–	–
O=C(/C=C/c1ccc(O)cc1)OC[C@H]1O[C@@H](Oc2c(-c3ccc(O)cc3)oc3cc(O)cc(O)c3c2=O)[C@H](O)[C@@H](O)[C@@H]1O [Tiliroside]	>2000 µM	>2000 µM	>2000 µM	>2000 µM	–	–	–
O=C(O)[C@H]1OC(Oc2c(-c3ccc(O)c(O)c3)oc3cc(O)cc(O)c3c2=O)[C@H](O)[C@@H](O)[C@@H]1O (stereo partly drawn) [Quercetin-3-O-glucuronide]	>2000 µM	>2000 µM	>2000 µM	>2000 µM	–	–	–
O=C(O)/C=C/c1ccc(O)c(O)c1 [Caffeic Acid]	>2000 µM	>2000 µM	>2000 µM	>2000 µM	–	–	–
Oleanolic Acid	1077 ± 15 µM	1613 ± 31 µM	190 ± 26 µM	940 ± 35 µM	–	–	–
O=c1oc2c(O)c(O)cc3c(=O)oc4c(O)c(O)cc1c4c23 [Ellagic Acid]	>2000 µM	>2000 µM	38 ± 13 µM	763 ± 32 µM	meaningful anti-biofilm activity	not an effective biofilm inhibitor	–
Ursolic Acid	640 ± 46 µM	763 ± 32 µM	207 ± 32 µM	397 ± 6 µM	–	–	–
O=c1c(O)c(-c2ccc(O)c(O)c2)oc2cc(O)cc(O)c12 [Quercetin Dihydrate]	1720 ± 20 µM	1903 ± 29 µM	543 ± 21 µM	1987 ± 21 µM	–	–	–
O=c1c(O)c(-c2ccc(O)cc2)oc2cc(O)cc(O)c12 [Kaempferol]	1640 ± 10 µM	1787 ± 42 µM	560 ± 53 µM	773 ± 6 µM	–	–	–
CCCCCCCCCC(=O)N[C@@H](Cc1c[nH]c2ccccc12)C(=O)N[C@H](CC(N)=O)C(=O)N[C@@H](CC(=O)O)C(=O)N[C@@H]1C(=O)NCC(=O)N[C@@H](CCCN)C(=O)N[C@@H](CC(=O)O)C(=O)N[C@H](C)C(=O)N[C@@H](CC(=O)O)C(=O)NCC(=O)N[C@H](CO)C(=O)N[C@@H]([C@H](C)CC(=O)O)C(=O)N[C@@H](CC(=O)c2ccccc2N)C(=O)O[C@@H]1C [daptomycin]	–	–	–	–	–	–	1.01×10^7 CFU/catheter
